# Measured values as given in patent US4963526A, “Oral insulin and a method of making the same” (priority 1988, dated 1990).
# System: white laboratory rats
# Assay: Blood glucose level in rats before and three hours after administration of the oral insulin preparation
# Assay type: in vivo
# Details: white laboratory rat, 5 units of bovine insulin, three hours after administration
# Experimental: Two white laboratory rats, weighing 177 and 197 grams, respectively, were used in this experiment. One rat was administered a preparation of oral insulin according to the present invention containing 5 units of insulin; a formulation of the oral insulin according to the present invention containing 10 units of bovine insulin was administered to the second rat. Blood samples were drawn from each animal before and three hours after administration of the oral insulin preparation. The results given below are expressed as the percentage of the pre-experiment blood glucose level.
# One white laboratory rat weighing 181 grams received a non-encapsulated preparation containing 5 units of free bovine insulin. This animal served as the control. After three hours, blood glucose level was 98.7% of the pre-experiment blood glucose level.
substance,measurement,value
free bovine insulin: non-encapsulated preparation containing 5 units of free bovine insulin; served as the control,blood glucose level as percentage of the pre-experiment (initial) blood glucose level,98.7 % of initial blood glucose lev
